Laboratory results reported in PubChem BioAssay (NCI).
Where “and” joins values, the source holds several entries; their conditions need not be identical. Equal values may be shown once.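 Method: 48-hour compound exposure of cells in 96-well plates, five concentrations, linear interpolation of endpoints. Here, GI50 denotes the concentration required for 50% inhibition of growth. At the TGI there is no net growth.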

What was measured:
Test in all cases: DTP human tumour cell line panel, 48 h
[1] = system: NCI-H522 lung
[2] = system: T-47D breast
[3] = system: HCT-15 colon
[4] = system: SK-MEL-2 melanoma
[5] = system: MALME-3M melanoma
[6] = system: RPMI-8226 leukemia
[7] = system: SK-OV-3 ovarian
[8] = system: NCI-H460 lung
[9] = system: UO-31 renal
[10] = system: HCT-116 colon
[11] = system: IGROV1 ovarian
[12] = system: RXF-631 renal
[13] = system: M19-MEL melanoma
[14] = system: DLD-1 colon
[15] = system: DMS 114 small cell lung

## COc1cccc(C2c3cc4c(cc3OC(N3CCOCC3)C2C)OCO4)c1 (centres undefined)
[1]
  TGI: 75.3 µM
[2]
  TGI: > 100 µM
[3]
  TGI: > 100 µM
[4]
  TGI: 83.6 µM
[5]
  TGI: > 100 µM
[6]
  TGI: > 100 µM
[7]
  TGI: > 100 µM
[8]
  TGI: 37.7 µM
[9]
  TGI: 43.4 µM
[10]
  TGI: 34.9 µM
[11]
  TGI: > 100 µM

## O=C1/C(=C/c2ccc(Cl)c(Cl)c2)CN(C(=O)CCN2CCOCC2)C/C1=C\c1ccc(Cl)c(Cl)c1
[12]
  GI50: 1990 nM
  TGI: 8.25 µM and 5.87 µM
[13]
  GI50: 1090 nM
  TGI: 3000 nM and 2400 nM
[14]
  GI50: 245 nM
  TGI: 409 nM and 785 nM
[15]
  GI50: 346 nM
  TGI: 2340 nM and 1330 nM
